Experimental data published in patent US9833439B2, “ERK inhibitors for use in treating spinal muscular atrophy” (UNIVERSITE PARIS DESCARTES, priority 2011, dated 2017).

Legend:
[1] = system: SMN2 promoter CRE sites 1 and 2; experiment: ChIP of Phospho-Elk-1 and Phospho-CREB on SMN2 promoter CRE sites in ventral lumbar spinal cord; format: in vivo, mice; settings: SMA spinal cords, intrathecal NMDA
Source text: The knockout-transgenic SMA-like mice (Smn^−/−, SMN2^+/+) were purchased from the Jackson Laboratory (Bar Harbor, Me.) and genotyped as previously described^15. Vehicle-treated group, NMDA-treated group, U0126-treated group and AZD6244-treated group of type 1 SMA-like mice were randomly constituted in a blind systematic manner to minimize bias. The control mice were heterozygous knock-out for Smn with the human SMN2 transgene (Smn^−/+, to SMN2^+/+).
In order to evaluate phospho-Elk-1 and phospho-CREB role on Smn2 promoter, P1 neonatal control and SMA-like mice, were either injected intrathecally with 5 pmol of N-methyl-D-aspartic Acid 100 μM (NMDA, Sigma, Saint Quentin Fallavier, France) in 0.5 μl/g of 0.9% NaCl dyed in blue Evans per gram. […]
Ventral lumbar Spinal Cord samples were chopped into small pieces with a scalpel and were fixed for 15 min with 1% formaldehyde. […] Lysates were cleared by centrifugation and DNA concentration was determined using a nanodrop spectrophotometer. […]
Quantitative real time PCR was performed with standard protocols using SYBR®Green ROX Mix (ABgene, Courtaboeuf, France) as a fluorescent detection dye in ABI PRISM® 7000 in a final volume of 10 μl which also contains 300 nM of primers (Operon, Cologne, Germany)
The relative amounts of DNA in samples were determined on the basis of the threshold cycle for each PCR product (Ct).

SMN transcripts = settings: very severe SMA-like mice; splicing pattern not modified; cited from earlier work
SMA-like mice [2] = experiment: Body weight of SMA-like mice; format: in vivo; settings: oral treatment
Procedure: The knockout-transgenic SMA-like mice (Smn^−/−, SMN2^+/+) were purchased from the Jackson Laboratory (Bar Harbor, Me.) and genotyped as previously described^15. […] The control mice were heterozygous knock-out for Smn with the human SMN2 transgene (Smn^−/+, to SMN2^+/+). […] These mice were compared to control and SMA-like mice either injected from P1 with 0.5 μl/g of 0.9% NaCl 1% DMSO dyed in blue Evans or orally treated with 2 μl/g of 0.9% NaCl 1% DMSO. Body weight and life span recordings were performed every day until the death of the animal. The animals were considered as dead when mice were no longer able to stand up 20 sec after having been placed on their sides.

SMA-like mice [3] = experiment: Life span of severe SMA-like mice; format: in vivo; settings: oral treatment
SMN protein = format: in vivo, mice; settings: oral treatment
AKT = settings: SMA mice, oral treatment

Compound	ratio of CREB and Elk-1 binding on the CRE sites [1]	total amount of SMN transcripts in the SMA spinal cord (SMN transcripts)	body weight (SMA-like mice [2])	life span of SMA mice (SMA-like mice [3])	SMN expression in the spinal cord of SMA mice (SMN protein)	AKT activation (AKT)
CN[C@H](CC(=O)O)C(=O)O [NMDA, N-methyl-D-aspartic Acid]	completely reversed	increased				
Cn1cnc2c(F)c(Nc3ccc(Br)cc3Cl)c(C(=O)NOCCO)cc21 [Selumetinib, 6-(4-bromo-2-chloroanilino)-7-fluoro-N-(2-hydroxyethoxy)-3-methylbenzimidazole-5-carboxamide]			progressive gain	remarkable increase	activation	activation
